The assay relates to Rattus norvegicus. As to the kind of experiment: Antinociceptive activity in non-injured Sprague-Dawley rat model assessed as paw withdrawal latency at 10 ug/5 uL administered intrathecal after 5 mins by radiant heat assay relative to vehicle-treated control. The format is functional.

As for `CCC(=O)N(CC1CCCCN1[C@@H](Cc1ccccc1)C(=O)NCC(=O)N[C@H](C)C(=O)N[C@@H](Cc1c(C)cc(O)cc1C)C(=O)O)c1ccccc1` (stereo partly specified), the Activity came to 63%.
